Experiment: mn = molality of the nth substance listed, in mol/kg
Settings: 101.3 kPa, Liquid

COC(=O)[C@H](C)N.Cl [methyl L-alaninate hydrochloride] + O
Settings	speed of sound [m/s]
278.15 K, Frequency=2 MHz, Linear variable-path acoustic interferometer, m1 = 0.0501	1432
278.15 K, Frequency=2 MHz, Linear variable-path acoustic interferometer, m1 = 0.0614	1432.9
278.15 K, Frequency=2 MHz, Linear variable-path acoustic interferometer, m1 = 0.0701	1433.8
278.15 K, Frequency=2 MHz, Linear variable-path acoustic interferometer, m1 = 0.082	1435.4
278.15 K, Frequency=2 MHz, Linear variable-path acoustic interferometer, m1 = 0.091	1437.2
278.15 K, Frequency=2 MHz, Linear variable-path acoustic interferometer, m1 = 0.1004	1437.6
278.15 K, Frequency=2 MHz, Linear variable-path acoustic interferometer, m1 = 0.1099	1438.9
278.15 K, Frequency=2 MHz, Linear variable-path acoustic interferometer, m1 = 0.1219	1440
278.15 K, Frequency=2 MHz, Linear variable-path acoustic interferometer, m1 = 0.1296	1441.4
278.15 K, Frequency=2 MHz, Linear variable-path acoustic interferometer, m1 = 0.1411	1442.6
278.15 K, Frequency=2 MHz, Linear variable-path acoustic interferometer, m1 = 0.1515	1443.6
278.15 K, Frequency=2 MHz, Linear variable-path acoustic interferometer, m1 = 0.1618	1444.4
288.15 K, Frequency=3 MHz, Sing-around technique in a fixed-path interferometer, m1 = 0.0502	1470.7
288.15 K, Frequency=3 MHz, Sing-around technique in a fixed-path interferometer, m1 = 0.0601	1471.8
288.15 K, Frequency=3 MHz, Sing-around technique in a fixed-path interferometer, m1 = 0.07	1473.1
288.15 K, Frequency=3 MHz, Sing-around technique in a fixed-path interferometer, m1 = 0.0801	1474.1
288.15 K, Frequency=3 MHz, Sing-around technique in a fixed-path interferometer, m1 = 0.0901	1475.2
288.15 K, Frequency=3 MHz, Sing-around technique in a fixed-path interferometer, m1 = 0.1003	1476.3
288.15 K, Frequency=3 MHz, Sing-around technique in a fixed-path interferometer, m1 = 0.1101	1477.1
288.15 K, Frequency=3 MHz, Sing-around technique in a fixed-path interferometer, m1 = 0.1202	1477.8
288.15 K, Frequency=3 MHz, Sing-around technique in a fixed-path interferometer, m1 = 0.13	1478.9
288.15 K, Frequency=3 MHz, Sing-around technique in a fixed-path interferometer, m1 = 0.1401	1480
288.15 K, Frequency=3 MHz, Sing-around technique in a fixed-path interferometer, m1 = 0.1504	1481.1
288.15 K, Frequency=3 MHz, Sing-around technique in a fixed-path interferometer, m1 = 0.1603	1482.2
298.15 K, Frequency=3 MHz, Sing-around technique in a fixed-path interferometer, m1 = 0.0486	1500.6
298.15 K, Frequency=3 MHz, Sing-around technique in a fixed-path interferometer, m1 = 0.0601	1502.2
298.15 K, Frequency=3 MHz, Sing-around technique in a fixed-path interferometer, m1 = 0.0697	1503
298.15 K, Frequency=3 MHz, Sing-around technique in a fixed-path interferometer, m1 = 0.0819	1503.6
298.15 K, Frequency=3 MHz, Sing-around technique in a fixed-path interferometer, m1 = 0.0899	1504.7
298.15 K, Frequency=3 MHz, Sing-around technique in a fixed-path interferometer, m1 = 0.0963	1505.2
298.15 K, Frequency=3 MHz, Sing-around technique in a fixed-path interferometer, m1 = 0.11	1506.4
298.15 K, Frequency=3 MHz, Sing-around technique in a fixed-path interferometer, m1 = 0.1184	1507.1
298.15 K, Frequency=3 MHz, Sing-around technique in a fixed-path interferometer, m1 = 0.1302	1508
298.15 K, Frequency=3 MHz, Sing-around technique in a fixed-path interferometer, m1 = 0.1401	1508.9
298.15 K, Frequency=3 MHz, Sing-around technique in a fixed-path interferometer, m1 = 0.1507	1509.8
298.15 K, Frequency=3 MHz, Sing-around technique in a fixed-path interferometer, m1 = 0.1601	1510.3

Settings	mass density [kg/m3]
278.15 K, Pycnometric method, m1 = 0.0501	1001.79
278.15 K, Pycnometric method, m1 = 0.0614	1002.2
278.15 K, Pycnometric method, m1 = 0.0701	1002.52
278.15 K, Pycnometric method, m1 = 0.082	1002.95
278.15 K, Pycnometric method, m1 = 0.091	1003.28
278.15 K, Pycnometric method, m1 = 0.1004	1003.62
278.15 K, Pycnometric method, m1 = 0.1099	1003.97
278.15 K, Pycnometric method, m1 = 0.1219	1004.4
278.15 K, Pycnometric method, m1 = 0.1296	1004.68
278.15 K, Pycnometric method, m1 = 0.1411	1005.1
278.15 K, Pycnometric method, m1 = 0.1515	1005.48
278.15 K, Pycnometric method, m1 = 0.1618	1005.86
288.15 K, Vibrating tube method, m1 = 0.0502	1000.8
288.15 K, Vibrating tube method, m1 = 0.0601	1001.13
288.15 K, Vibrating tube method, m1 = 0.07	1001.47
288.15 K, Vibrating tube method, m1 = 0.0801	1001.8
288.15 K, Vibrating tube method, m1 = 0.0901	1002.14
288.15 K, Vibrating tube method, m1 = 0.1003	1002.49
288.15 K, Vibrating tube method, m1 = 0.1101	1002.82
288.15 K, Vibrating tube method, m1 = 0.1202	1003.16
288.15 K, Vibrating tube method, m1 = 0.13	1003.49
288.15 K, Vibrating tube method, m1 = 0.1401	1003.83
288.15 K, Vibrating tube method, m1 = 0.1504	1004.18
288.15 K, Vibrating tube method, m1 = 0.1603	1004.51
298.15 K, Vibrating tube method, m1 = 0.0486	998.75
298.15 K, Vibrating tube method, m1 = 0.0601	999.01
298.15 K, Vibrating tube method, m1 = 0.0697	999.32
298.15 K, Vibrating tube method, m1 = 0.0819	999.68
298.15 K, Vibrating tube method, m1 = 0.0899	999.97
298.15 K, Vibrating tube method, m1 = 0.0963	1000.19
298.15 K, Vibrating tube method, m1 = 0.11	1000.61
298.15 K, Vibrating tube method, m1 = 0.1184	1000.89
298.15 K, Vibrating tube method, m1 = 0.1302	1001.2
298.15 K, Vibrating tube method, m1 = 0.1401	1001.54
298.15 K, Vibrating tube method, m1 = 0.1507	1001.93
298.15 K, Vibrating tube method, m1 = 0.1601	1002.17

— the NIST ThermoML archive (doi:10.1016/j.jct.2016.10.016)
